# How the values were obtained:
# [1] = test system: Dictyostelium cells; assay: Inhibition of chemotactic response to folic acid by cisplatin, ECIS/taxis; assay type: cell-based, Dictyostelium discoidium; settings: increasing concentrations of cisplatin, folic acid as chemoattractant
# Protocol: These chambers were filled with 300 μL of a 0.5% solution of melted agarose prepared as described above. The thickness of the agarose layer is 4 mm. […]
# [2] = test system: Dictyostelium discoidium strain NC4A2 cells; assay: ECIS/taxis under-agarose chemotaxis assay, cell movement in a folate gradient; assay type: cell-based
# Protocol: Dictyostelium discoidium strain NC4A2 is an axenic cell line derived from the wild type NC4 line. The myosin II heavy chain mutant (HK323) was generated by homologous recombination to delete the coding portion of the gene in the NC4A2 cell line. Cells were maintained in HL5 media in 100 mm petri dishes with media changes every three days. Cells to be used for experimental procedures were harvested at mid-log phase. Cells were centrifuged at 200×g for 5 minutes at room temperature, re-suspended in fresh media and counted with a Z2 particle counter (Coulter, Miami, Fla.). Chambers were loaded with 10^6 cells per well.
# Chemotaxis assays were adapted from the under-agarose chemotaxis method. Briefly, a 0.5% solution of GTG agarose (FMC Corporation, Rockland, Me.) was prepared in 1×SM media (10 g Difco Bacto-Peptone, 10 g glucose, 1 g yeast extract, 1.9 g KH2PO4, 0.6 g K2HPO4, 0.43 g MgSO4 per liter, pH 6.5). For chemokinetic assays, 2×SM agarose media was premixed with an equal volume of 2× folic acid and then added to the chamber to harden.
# The chemoattractant folic acid (Research Organics, Inc. Cleveland, Ohio) stock at 100 mM was prepared by dissolving 0.44 g folate in 220 ul of 10 M NaOH. The final volume was adjusted to 10 ml with distilled water. The solution was filter sterilized through a 0.2 micron filter, aliquoted and stored frozen at −20° C. in the dark. The folate solution was adjusted to the appropriate concentration and added to wells one hour prior to the addition of cells to allow for establishment of the chemotactic gradient. […] Following this incubation, the cells were washed three times in PDF and then re-suspended in PDF before placement in the cell wells of ECIS/taxis chambers.
# The commercially available ECIS electrode configuration (Applied Biophysics, Inc., Troy, N.Y.) consists of 8 chambers per array, each with a large electrode and a small target electrode (see panel A of FIG. 2). These chambers were filled with 300 μL of a 0.5% solution of melted agarose prepared as described above. […]
# The chemoattractant was then loaded into one well in appropriate chambers and the gradient was allowed to form for one hour. […] Impedance to this current flow was measured and a resistance value was calculated according to established protocols. […] In the results presented below, the data is presented as normalized resistance, which is calculated as a fraction of the initial resistance of the chamber at the start of the experiment.
# A gradient was established by loading 1 mM folate into the chemoattractant well of a modified ECIS chamber, and one hour later Dictyostelium cells were placed in the adjacent cell well. […] In order to visualize the arrival of the cells at the target electrode, the cells exposed to folate were continuously monitored by video microscopy. […]
SMILES,effect on time of arrival of cells at the electrode [1],absolute number of cells that arrive at the electrode versus folate dose ([2]; folate 0.16 to 1 mM in chemoattractant well),time of arrival of cells at the target electrode after placement of cells in the cell well ([2]; gradient formed by 1 mM folate),average speed of cell movement to the target electrode ([2]; gradient from 1 mM folate),"time of first small resistance peak (initial cell spreading on the target electrode) ([2]; gradient from 1 mM folate in chemoattractant well, loaded 1 h before cells, wells 2 mm from electrode) [h]"
"N.N.[Cl][Pt][Cl] [cisplatin, Cisplatin]",delayed in a manner proportional to the dose of cisplatin,,,,
"Nc1nc2ncc(CNc3ccc(C(=O)N[C@@H](CCC(=O)O)C(=O)O)cc3)nc2c(=O)[nH]1 [folate, folic acid]",,absolute number of cells that arrive decreases as the dose of folate used to establish the gradient decreases,approximately 3.5 hours,approximately 10 μm/min,3.75
